Patent US7098241B2, “Thiophene hydroxamic acid derivatives” (Hoffmann-La Roche Inc., priority 2002, dated 2006)

Tests used:
[1] = system: HT-29 cells (human colon carcinoma cell line); assay: MTT anti-proliferation assay on HT-29 cells; assay type: cell-based; conditions: Homo sapiens, 120 h, 384 well plates, 5 days, read-out: IC50 HT29 384
Source text: MTT (3-(4,5-dimethylthiazol-2-yl)-2,5-diphenyl tetrazolium bromide) is widely used for the quantitative determination of cytotoxic effects or in vitro chemosensitivity of tumor cells. The assay is based on the cleavage of the yellow tetrazolium salt (MTT) to purple formazan crystals by metabolic active cells. For details, see Rubinstein, L. V., et al., J. Natl. Cancer Inst. 82 (1990) 1113.
We proceeded as follows: HT-29 cells (human colon carcinoma cell line) were cultivated in RPMI 1640, 2.5% FCS, 2 mM glutamine, 100 u/ml penicillin, 100 ug/ml streptomycin. For the assay the cells were seeded in 384 well plates, 900 cells per well, in the same medium. At the next day, the compounds (dissolved 10 mM in DMSO) were added in various concentrations ranging from 30 uM to 1.5 nM. After 5 days, the MTT assay was done mainly according to the instructions of the manufacturer (Cell proliferation kit I, MTT, from Roche Molecular Biochemicals). In brief: MTT labeling reagent was added to a final concentration of 0.5 mg/ml, added and incubated for 4 hrs at 37° C., 5% CO2. During this incubation time purple formazan crystals are formed. After addition of the solubilization solution (20% SDS in 0.02 M HCl) the plates were incubated overnight at 37° C., 5% CO2. After careful mixing, the plates were measured in Victor 2 (scanning multiwell spectrophotometer, Wallac) at 550 nm.
A decrease in number of living cells results in a decrease in the total metabolic activity in the sample. The decrease directly correlates to the amount of purple color resulting from the solubilization of the purple formazan crystals. Determination of IC50 was done using XL-fit.

[2] = system: HCT116 tumor cells (human colon adenocarcinoma) xenograft; assay: Antitumor activity in a HCT116 xenograft model; assay type: in vivo, NMRI nude male mice; conditions: 21 dosing days over 29 days
Description: Determination of Antitumor Activity in a HCT116 Xenograft Model
The HCT116 cell line (NCI line) is derived from a human colon adenocarcinoma and kept in an in house working cell bank. Cells were cultured in RPMI1640/2 mM L-glutamin medium supplemented with 10% heat inactivated FCS. For inoculation HCT116 tumor cells are removed (trypsin-EDTA, 50 U/mg) from culture flasks and transferred into culture medium (RPMI 1640, 10% heat inactivated FCS), washed and resuspended in sterile PBS to achieve a final cell concentration of 5×10^6/100 μl. Cell suspension was carefully mixed by regular shaking to avoid cell aggregation and filled into a 1.0 ml graded syringe. Tumor cell inoculation was performed under light anesthesia (Ethrane.) in the upper ventral quarter of right flank, i.e. between axilla of forelegs and midline region of NMRI nude male mice. In this site 5×10^6 HCT116 tumor cells were s.c. discharged in a volume of 100 μl PBS. All procedures were carried out under SPF conditions wearing appropriate clothings. After s.c. inoculation of tumor cells, measurable tumors developed in all animals. Mice were staged and randomized on day 10 according to the primary tumor dimensions. 21 days daily oral dosing was carried out using the compound of example 1 and compound 3 of WO 93/07148, WO 95/31977, U.S. Pat. No. 5,369,108 ('108 patent) as test article. 75 male NMRI nude mice were divided into 5 study groups. Each group consisted of 15 male animals. The individual groups were given the test article, formulated as microsuspensions in 7.5% modified gelatin with 0.22% NaCl solution, once daily by oral route over 29 days according to the following treatment scheme: 3 days treatment, 2 days drug holiday, 5 days treatment, 2 days drug holiday, 5 days treatment, 2 days drug holiday, 5 days treatment, 2 days drug holiday, 3 days treatment. The application volume was 10 ml/kg. The oral doses chosen were 50, 100, and 200 mg/kg of the compound of example 1 and 200 mg/kg of compound 3 of the '108 patent.

[3] = system: PC-3 prostate carcinoma cells xenograft; assay: Antitumor activity in a PC-3 xenograft model; assay type: in vivo, NMRI nude mice; conditions: 15 days of treatment over 19 days, vs vehicle group
Description: Determination of Antitumor Activity in a PC-3 Xenograft Model
PC-3 prostate carcinoma cells were originally obtained from the NCI collection and were deposited after expansion in the Roche cell bank Penzberg. Tumor cell line was routinely cultured in RPMI 1640 Medium containing 10% FBS and 2 mM L-glutamine at 37° C. in a water-saturated atmosphere at 5% CO2. Culture passage was performed with trypsin/EDTA 1× (Roche Diagnostics) splitting twice a week. Cell passage 3 was used in the present study.
At the day of cell injection, cells were harvested from culture flasks (Greiner T 75), transferred into 50 ml culture medium, washed once and resuspended in PBS. After an additional washing with PBS, the final cell titer was measured with a Neubauer-Chamber. The tumor cell suspension (PBS) was vortexed carefully (to reduce cell aggregation) and kept on ice. The cell suspension was filled into a 1.0 ml syringe. To generate primary tumors, 2×10^6 PC-3 tumor cells in a volume of 100 μl PBS were injected subcutaneously into the right flank of each mouse (NMRI nude mice). After s.c. inoculation of tumor cells, measurable tumors developed in all animals. Mice were staged and randomized on day 10 according to the primary tumor dimensions. 15 days daily oral dosing was carried out using the compound of example 1 and compound 3 of WO 93/07148, WO 95/31977, U.S. Pat. No. 5,369,108 as test article. 90 male NMRI nude mice were divided into 6 study groups. Each group consisted of 15 male animals. The individual groups were given the test article, formulated as microsuspensions in 7.5% modified gelatin with 0.22% NaCl solution, once daily by oral route over 19 days (3 cycles of 5 days treatment and a 2-day drug free period each). The application volume was 10 ml/kg. The oral doses chosen were 25, 50, 100, and 200 mg/kg of example 1 and 200 mg/kg of compound 3 of patent '108. The study was terminated on day 28 after tumor cell injection when the vehicle group reached the termination criteria.

- IC50 [1]: 170 nM
SMILES: C[C@@H](NC(=O)c1ccc(C(=O)NO)s1)c1ccccc1 [Example 1, (R)-thiophene-2,5-dicarboxylic acid 2-hydroxyamide 5-[(1-phenyl-ethyl)-amide]]
- tumor weight inhibition ([2]; 50 mg/kg oral once daily): 40%
- tumor weight inhibition ([2]; 100 mg/kg oral once daily): 49%
- tumor weight inhibition ([2]; 200 mg/kg oral once daily): 87%
- tumor weight inhibition ([3]; 25 mg/kg oral once daily): 15%
- tumor weight inhibition ([3]; 50 mg/kg oral once daily): 36%
- tumor weight inhibition ([3]; 100 mg/kg oral once daily): 51%
- tumor weight inhibition ([3]; 200 mg/kg oral once daily): 81%
